≈ marks a conversion by molar mass, not a printed value. Where two headings read alike, the source gives them in different places.
Assays:
[1] = Solubility of FF-MAS in water, ethanol and ethanol/water; type: physicochemical
Experimental: The solubility of a preferred MAS, i.e., FF-MAS, in water is very low, i.e., approximately 20 picogram/ml (corresponding to 2×10^−5 μg/ml). […] According to our preliminary investigations, the highest solubility of FF-MAS in a mixture of ethanol and water (1:2.5) is approximately 0.4 mg/ml. Several other MASs have a similar low solubility in water.

[2] = system: oocytes obtained from immature female mice; assay: Germinal vesicle breakdown (GVB) test on mouse oocytes; type: cell-based
Experimental: Oocytes were obtained from immature female mice (C57BL/6J×DBA/2J F1, Bomholtgaard, Denmark) weighing 13–16 grams, that were kept under controlled temperature (20–22° C.), light (lights on 06.00–18.00) and relative humidity (50–70%). The mice received an intraperitoneal injection of 0.2 ml gonadotropins (Gonal-F, Serono) containing 20 IU FSH and 48 hours later the animals were killed by cervical dislocation. The ovaries were dissected out and the oocytes were isolated in Hx-medium (see below) under a stereo microscope by manual rupture of the follicles using a pair of 27 gauge needles. Spherical oocytes displaying an intact germinal vesicle (hereinafter designated GV) were divided in cumulus enclosed oocytes (hereinafter designated CEO) and naked oocytes (hereinafter designated NO) and placed in α-minimum essential medium (α-MEM without ribonucleosides, Gibco BRL, Cat. No. 22561) supplemented with 3 mg/ml bovine serum albumin (BSA, Sigma Cat. No. A-7030), 5 mg/ml human serum albumin (HSA, State Serum Institute, Denmark), 0.23 mM pyruvate (Sigma, Cat. No S-8636), 2 mM glutamine (Flow Cat. No. 16-801), 100 IU/ml penicillin and 100 μg/ml streptomycin (Flow, Cat No. 16-700). This medium was supplemented with 3 mM hypoxanthine (Sigma Cat. No. H-9377) and designated Hx-medium.
The oocytes were rinsed three times in Hx-medium and oocytes of uniform size were divided into groups of CEO and NO. CEO and NO were cultured in 4-well multidishes (Nunclon, Denmark) in which each well contained 0.4 ml of Hx-medium and the compound to be tested in a concentration of 10 μM. One control well (i.e., 35–45 oocytes cultured in identical medium with no addition of test compound) was always cultured simultaneously with 3 test wells (35–45 oocytes per well supplemented with test compound).
The oocytes were cultured in a humidified atmosphere of 5% CO2 in air for 24 hours at 37° C. By the end of the culture period, the number of oocytes with GV, GVB and polar bodies (hereinafter designated PB), respectively, were counted using a stereo microscope (Wildt, Leica MZ 12). The percentage of GVB, defined as percentage of oocytes undergoing GVB per total number of oocytes in that well, was calculated as: % GVB=((number of GVB+number of PB)/total number of oocytes)×100.
FF-MAS was dissolved in ethanol (25 μg FF-MAS/ml ethanol). HSA is dissolved in water (1%). 100 μl of the above mentioned ethanol solution (corresponding to the amount of FF-MAS needed for one treatment) and 350 μl of the above-mentioned HSA solution were mixed in a glass vial. The resulting mixture of FF-MAS and HSA was evaporated to dryness by airflow of argon. After the liquid was evaporated, the vial was sealed by a rubber septum and the vial was placed at a temperature of 2–8° C. At the time for usage, 500 μl of freshly prepared IVM media was added to the residue in the vial and shaken calmly for 1–2 minutes. The IVM media used was TCM 199 with Earle's salts (Sigma) to which was added 0.8% HSA, 2 mM L-glutamine, 0.25 mM sodium pyrovate, 100 IU/ml penicillin G, and 100 microgram/ml streptomycin. The liquid was transferred to a 4-well dish and the composition was tested on oocytes obtained from immature female mice. Percentage GVB obtained, see below in Table 1.
FF-MAS was dissolved in ethanol (20 μg FF-MAS/ml ethanol) and HSA was dissolved in water (1%). 100 μl of the above mentioned ethanol solution (corresponding to the amount of FF-MAS needed for one treatment) and 250 μl of the above-mentioned HSA solution were mixed and 350 μl of the combined liquid was aliquoted in a glass vials. The vials were placed at −80° C. for one night. All samples were thereafter freeze-dried at −45° C. for 16 hours followed by 8 hours freeze drying at −15° C. and 8 hours freeze drying at +25° C. Before the freeze dryer was opened all vials were automatically sealed with rubber septums by a pressure of nitrogen. The vials were closed with a capsule and placed at a temperature of 2–8° C. […]

CC(C)=CCC[C@@H](C)[C@H]1CC=C2C3=C(CC[C@@]21C)[C@@]1(C)CC[C@H](O)C(C)(C)[C@@H]1CC3 [FF-MAS, 4,4-dimethyl-5α-cholesta-8,14,24-triene-3β-ol]
solubility ([1]; ethanol/water (1:2.5), aqueous with cosolvent or surfactant or cyclodextrin, ethanol and water (1:2.5), preliminary investigations, read-out: highest solubility of FF-MAS in a mixture of ethanol and water): ~400 µg/mL (≈ 0.974 mM) | solubility of FF-MAS in water ([1]; in water): approximately 20 picogram/ml | solubility ([1]; organic solvent or mixture, in ethanol, read-out: solubility of FF-MAS in ethanol): ~12000 µg/mL (≈ 29.2 mM) | % GVB ([2]; Dose FF-MAS 0.24 μmol/l, in combination with HSA 6 mg/ml, Example 3): 86% | % GVB ([2]; Dose FF-MAS 0.48 μmol/l, in combination with HSA 6 mg/ml, Example 3): 88% | % GVB ([2]; Dose FF-MAS 1.2 μmol/l, in combination with HSA 6 mg/ml, Example 3): 91% | % GVB ([2]; Dose FF-MAS 2.4 μmol/l, in combination with HSA 6 mg/ml, Example 3): 97% | % GVB ([2]; Dose FF-MAS 10 μmol/l, internal control dissolved in ethanol, Example 3): 43% | % GVB ([2]; Dose FF-MAS 10 μmol/l, internal control dissolved in ethanol, Example 4, first test): 85% | % GVB ([2]; Dose FF-MAS 10 μmol/l, internal control dissolved in ethanol, Example 4, second test): 83% | % GVB ([2]; Dose FF-MAS 10 μmol/l, internal control dissolved in ethanol, Example 8, 5 tests): 85%

Source: US6988613B2, “Composition for IVF” (Novo Nordisk A/S, priority 2001, dated 2006)
